The test system of this data set is HiB5 cells. To be noted: for O.D. %: control = 100. How it is done:
Since HiB5 cells derived from white rat embryonic hippocampus were prepared by retroviral infection of temperature sensitive SV40 large T antigen, they divided at […], but the cell division stopped at 39° C. (body temperature of rat). […] Cell culture medium was prepared by adding a mixture of 10% FBS (fetal bovine serum), penicillin/streptomycin, glutamine and sodium pyruvate (0.11 g/L) to DMEM. On differentiating at 39° C., another cell culture medium was prepared by adding pyruvate to a serum-free medium (N2, containing DMEM/F12, insulin, transferrin, Putreseine and BSA; Botten Stein & Sato., 1979). PC12 cells and SH-SY5Y cells were cultured in DMEM supplemented with 10% FBS. In order to differentiate the cells, NGF or retinoic acid was added to a serum-free medium.
Cell injuries under condition of serum deprivation-induced stress and oxidative stress were measured by MTT assay. For MTT assay, Cells were seeded into N2 medium in an amount of 7.5×10^3 cells, and then a neurotoxin or a nerve growth factor was added thereto to differentiate the cells and then 0.1 volume of 4 mg/ml MTT was further added. The mixture was stored at 37° C. for 3-4 hours. After 100 μl of solubilization buffer was added to the mixture and then stored for 24 hours, O.D. values were measured by ELISA assay.
HiB5 cell line used in this experiment was prepared by infecting primary cultured cells of temperature sensitive SV40 large T antigen in rat embryonic hippocampus (embryonic day 16) using retroviral vectors. The HiB5 cell line was divided at the permissive temperature (32° C.), but the cell division stopped at the non-permissive temperature (body temperature of rat: 39° C.). A small number of GABAegic neurons differentiated in the rat embryonic hippocampus (embryonic day 16), and glutamatergic pyramidal cell precursors still divided, some of which penetrated into dentate gyrus regions through dentate migration pathways in embryonic day 18 to differentiate into glutamatergic granule cells (Altman J., Bayer. S. A. (1990a) Prolonged sojourn of developing pyramidal cells in the intermediate zone of the hippocampus and their settling in the stratum pyramidale. J Comp Neurol. 301, 343-64.; Altman J., Das G. D. (1965) Post-natal origin of microneurones in the rat brain, Nature. 28, 953-956.). When cells stop their cell-division and start to differentiate in vivo, apoptosis occurs.
In order to evaluate the protective effect of berberine against apoptosis and the effect of increasing cell survival, HiB5 cells were cultured under conditions for initiation of differentiation. At this time, the culture was treated with berberine at various concentrations (50 ng/ml˜6 μg/ml). The protective effect of berberine against apoptosis was measured by MTT assay. A positive control group was treated with bFGF to block apoptosis, increase cell survival and induce the differentiation into nerve cells.
Since HiB5 neuronal stem cells undergo cell death during the differentiation, the cells were considered as a negative control group. The percentage of O.D. values is determined for the groups treated with bFGF and berberine, respectively.

Like-named read-outs stand apart in the source and are kept apart here.

Take `COc1ccc2cc3[n+](cc2c1OC)CCc1cc2c(cc1-3)OCO2` [Berberine, 7,8,13,13a-tetradihydro-9,10-dimethoxy-2,3-(methylenedioxy) berbinium]: the O.D. % runs as follows: (50 ng) 99%; (100 ng) 103%; (250 ng) 111%; (500 ng) 140%; (700 ng) 154%; (1 μg) 153%. The O.D. % by setting is: (1.5 μg) 162%; (2 μg) 173%; (2.5 μg) 185%; (3 μg) 190%; (4 μg) 189%; (5 μg) 191%. This compound also returned an O.D. % (6 μg) of 190%. Moreover, where the note is “HiB5 under differentiation conditions, MTT”, the “cell survival rate / protective effect against apoptosis, increase over control” value is “about two times”. For the same compound, the cell survival rate result (berberine 250˜500 ng/ml) is given as “somewhat increased”. For the same compound, the cytotoxicity entry (berberine up to 6 μg/ml) was “no cytotoxicity”.

For the origin of these results see patent US20040097534A1, “Composition for the protection and regeneration of nerve cells containing berberine derivatives” (EUGENBIO INC., priority 2001, published 2004).
